Test results from article PMC10447463, “Data-mining unveils structure–property–activity correlation of viral infectivity enhancing self-assembling peptides” (Nature Communications, 2023).
“And” between values parts separate entries of the source, which are not always exact repeats. Identical values can stand only once. Like-named read-outs stand apart in the source and are kept apart here.

Columns and labels:
[1] = tested on: HIV-1 infection of TZM-bl cells; assay: HIV-1 infectivity enhancement assay, β-galactosidase luminescence; format: cell-based; conditions: for Log Infectivity: Log10 infection relative to EF-C, TZM-bl cells; for Log Infectivity / Log10 Inf. rel. to EF-C: asymmetric std dev errors; for Log10 Infection Rel EF-C: HIV-1 infection of TZM-bl cells; for Log10 Inf. rel. to EF-C: log10 of HIV-1 infection of TZM-bl cells relative to EF-C, Fig S15 source data; for Rel-to EFC / n-fold to virus: Fig S8 panels B, D; for Rel-to EFC: infectivity enhancement relative to EF-C
[2] = β-sheet content by ATR-FT-IR; format: physicochemical
How it was run: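 Measurements on freeze-dried PNF powders used a diamond ATR element, 64 scans each, with β-sheet fraction derived as previously reported. CR reflects loss of fluorescamine-reactive monomer after 3 kDa ultrafiltration, averaged over triplicates.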

[3] = Zeta-potential measurement; format: physicochemical; conditions: for Zeta-pot. / mV: zeta potential of peptide, Fig S15 source data
How it was run: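 Aggregates: 1 mg/mL peptide, PBS pH 7.4, 1 d RT; dilute in KCl (1 mM, aq); measure mobility → zeta via Smoluchowski.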

[4] = Turbidity, derived count rate of scattered light; format: physicochemical; conditions: for Log Count Rate: log of derived count rate
How it was run: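 Samples: 1 mg/mL in PBS pH 7.4 (from DMSO), 1 d at RT, then diluted in 1 mM KCl immediately before measurement. Triplicates, two independent runs averaged.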

[5] = Feb2021, 1.3 µM value relative to virus only (0 µM)
[6] = Feb2021, Log10 of infectivity relative to EF-C
[7] = Feb2021, n-fold enhancement relative to EF-C
[8] = Feb2021, n-fold infectivity relative to EF-C
[9] = Feb2021, unrounded values of the 1.3 µM column
[10] = Feb2021 run, infectivity n-fold relative to virus alone
[11] = Feb2021 run, log10 of infectivity relative to EF-C
[12] = Feb2021 run, n-fold infectivity relative to EF-C
[13] = infectivity class (low / medium / high) of each library peptide, main list in c1-c6, same classes repeated in sub-lists of sequences containing the hydrophobicity/charge patterns P+,H0,P+,H0,P0,H0,P0, P+,H0,P0,H0,P0,H0,P0, P+,H0,P0,H0
[14] = category 1 or 0 from count rate, key not given
[15] = derived count rate of scattered light, mean, std deviation in next column
[16] = derived count rate of scattered light, mean, std deviation in separate column
[17] = Feb2021, figures match the 1.3 µM column
[18] = Feb2021, infectivity relative to virus only
[19] = infectivity n-fold relative to virus alone
[20] = infectivity class (low / medium / high) of the peptide in the sequence-pattern analysis, Fig. S22-A4, class limits not given
[21] = infectivity enhancement relative to EF-C (=1), Feb2021 run
[22] = infectivity n-fold relative to virus only, Feb2021 run
[23] = log10 of infectivity relative to EF-C, Feb2021 run
[24] = Fig S8 panels A, C, asymmetric log errors
[25] = Fig S8 panels B, D, turbidity, derived count rate of scattered light
[26] = derived count rate from zeta measurement, mean
[27] = derived count rate of scattered light
[28] = Feb2021, log10 of infectivity relative to EF-C

Substance	n-fold to virus (Feb2021) [1, 5]	Log10 of Rel to EFC (Feb2021) [1, 6]	Rel-to EFC (Feb-2021) [1, 7]	Rel-to EFC (Feb-2021) [1, 8]	Absolute Infectivity / RLU /s (Feb2021) [1, 9]	n-fold to virus (Feb2021) [1, 10]	Log10 of Rel to EFC (Feb2021) [1, 11]	Rel-to EFC (Feb-2021) [1, 12]	infectivity [1, 13]	Log10 Inf. rel. to EF-C [1]	FTIR ß-sheet content/ % [2]	FTIR ß-sheet content/ % ([2]; ATR-FT-IR)	Zeta category ( +1 = if > 4 mV;-1 = if < -4 mV; 0 = -4mV to 4 mV) [3]	Zeta category ( +1 = if > 4 mV;-1 = if < -4 mV; 0 = -4mV to 4 mV) ([3]; category from zeta potential)	Zeta Pot. / mV ([3]; mean, Std Zeta in next column)	Zeta Pot. / mV ([3]; mean, Std in separate column)	Zeta-pot. / mV [3]	Zeta Count Rate Category ([4]; category 1/0, no key printed)	Zeta Count Rate Category [4, 14]	Zeta Count Rate / kcps [4, 15]	other results
CKIKIQINMWQ	–	–	–	–	–	–	–	–	–	–	–	–	–	–	–	–	–	–	–	–	Rel-EFC ([1]; 1.3 µM peptide, infection relative to EF-C (QCKIKQIINMWQ = 1)): 0,7; Log10 Infection Rel EFC ([1]; 1.3 µM peptide, log10 of infection relative to EF-C): -0,16; Log Infectivity ([1]; Fig. S7 panel A (plotted against β-sheet content)): -0.155; Log Infectivity ([1]; Fig. S7 panel B (plotted against CR), rounded to two decimals): -0.16; Log10 Infection Rel EF-C ([1]; Log10 of infection rate relative to EF-C, Figure 3A source data): -0.16; Log10 Infection Rel EF-C ([1]; infection rate relative to EF-C, log10, data of Figure 2D): -0.155; Log10 Infection Rel EF-C ([1]; infection rate relative to EF-C, log10, source data of Figure 2C): -0.155; Log10 of Rel to EFC (Feb2021) ([1]; Log10 of infection relative to EF-C, all peptides of FigS16): -0.16; b -sheet / % ([2]; Fig. S7 panel A, β-sheet content by ATR-FT-IR): 44.89%; Zeta-Pot. ([3]; zeta potential of peptide assemblies): 13.87; Zeta-Potential / mV ([3]; zeta-potential of peptide, source data of Figure 2C): 12.25 mV; Zeta-Potential / mV ([3]; zeta-potential of the peptide assemblies, mean, Figure 3A source data): 13.87 mV; Log10 Count Rate ([4]; Log10 of derived count rate of scattered light (turbidity)): 3.274; Count Rate / kcps ([4]; derived count rate of scattered light at 633 nm, 173°, from zeta-potential measurement, 0.1 mg/mL in 1 mM KCl after 1 d at 1 mg/mL in PBS, turbidity / microscopic aggregation, mean of triplicate): 1881 kcps; Log10 Count Rate ([4]; log10 of derived count rate of scattered light (turbidity)): 3.274; Log10 Count Rate ([4]; turbidity, Log10 of derived count rate of scattered light, Figure 3A source data): 3.274
CKIKIQINMWQ [MG1]	29.41	-0.155	0.6998	0.6998	18623.33333 RLU /s	29.41	-0.155	0.6998	medium	-0.155	44.89%	45% and 44.89%	1 (+1 = if > 4 mV)	1 (+1 = if > 4 mV)	13.87 mV	13.87 mV	13.87 mV	1	1	1881 kcps	Zeta Count Rate / kcps [4, 16]: 1881 kcps
CKIKQII [MG4a]	–	-1.379	0.04182	0.04182	–	1.757	-1.379	0.04182	–	-1.379	25%	25%	0 (0 = -4mV to 4 mV)	0 (0 = -4mV to 4 mV)	-3.83 mV	-3.83 mV	-3.83 mV	–	0	74.6 kcps	Absolute Infectivity / RLU /s (Feb2021) [1, 17]: 796.7 RLU /s; n-fold to virus (Feb2021) [1, 18]: 1.757; Rel-to EFC [1]: 0.04182; n-fold to virus [1, 19]: 1.757; infectivity [1, 20]: low; Rel-to EFC (Feb-2021) [1, 21]: 0.04182; n-fold to virus (Feb2021) [1, 22]: 1.757; Log10 of Rel to EFC (Feb2021) [1, 23]: -1.379; Zeta Pot. / mV [3]: -3.83 mV; Log Count Rate [4, 24]: 1.873; Log Count Rate ([4]; Fig S8 panels B, D): 1.873; Count Rate [4, 25]: 74.6; Zeta Count Rate Category ([4]; category 1 / 0, no key given): 0; Zeta Count Rate / kcps [4, 26]: 74.6 kcps; Zeta Count Rate / kcps [4, 27]: 74.6 kcps; Zeta Count Rate / kcps [4, 16]: 74.6 kcps; Zeta Count Rate Category ([4]; key not given): 0
CKIKQIINM [BL1]	–	-0.3035	0.4971	0.4971	–	20.89	-0.3035	0.4971	medium	-0.3035	46%	46%	1 (+1 = if > 4 mV)	1 (+1 = if > 4 mV)	12.9 mV	12.9 mV	12.9 mV	–	1	9058 kcps	Absolute Infectivity / RLU /s (Feb2021) [1, 17]: 11280 RLU /s; n-fold to virus (Feb2021) [1, 18]: 20.89; Zeta Pot. / mV [3]: 12.9 mV; Zeta Count Rate Category ([4]; category 1 / 0, no key given): 1; Zeta Count Rate / kcps [4, 27]: 9058 kcps; Zeta Count Rate / kcps [4, 16]: 9058 kcps
CKIKQIINMWQ [MG5a / CK17]	–	0.09484	1.244	1.244	–	52.27	0.09484	1.244	–	0.09484	51%	51%	1 (+1 = if > 4 mV)	1 (+1 = if > 4 mV)	13.4 mV	13.4 mV	13.4 mV	–	1	8317 kcps	Absolute Infectivity / RLU /s (Feb2021) [1, 17]: 23696.66667 RLU /s; n-fold to virus (Feb2021) [1, 18]: 52.27; Rel-to EFC [1]: 1.244; n-fold to virus [1, 19]: 52.27; infectivity [1, 20]: high; Rel-to EFC (Feb-2021) [1, 21]: 1.244; n-fold to virus (Feb2021) [1, 22]: 52.27; Log10 of Rel to EFC (Feb2021) [1, 23]: 0.09484; Zeta Pot. / mV [3]: 13.4 mV; Log Count Rate [4, 24]: 3.92; Log Count Rate ([4]; Fig S8 panels B, D): 3.92; Count Rate [4, 25]: 8316.83; Zeta Count Rate Category ([4]; category 1 / 0, no key given): 1; Zeta Count Rate / kcps [4, 26]: 8317 kcps; Zeta Count Rate / kcps [4, 27]: 8317 kcps; Zeta Count Rate / kcps [4, 16]: 8317 kcps; Zeta Count Rate Category ([4]; key not given): 1
CRFRFQF [CN10]	14.45	–	–	0.3439	7508 RLU /s	–	–	–	medium	-0.4635	–	39.77%	0 (0 = -4mV to 4 mV)	–	-2.097 mV	–	-2.097 mV	1	–	390.5 kcps	Log10 of Rel to EFC (Feb2021) [1, 28]: -0.4635
CRFRVPF [CN8]	0.837	–	–	0.01992	376.7 RLU /s	–	–	–	low	-1.701	–	11.43%	1 (+1 = if > 4 mV)	–	4.413 mV	–	4.413 mV	0	–	73.97 kcps	Log10 of Rel to EFC (Feb2021) [1, 28]: -1.701
CSISIQI [TM141]	2.35	–	–	0.05593	3087 RLU /s	–	–	–	–	-1.252	–	58.57%	-1 (-1 = if < -4 mV)	–	-25.93 mV	–	-25.93 mV	1	–	10241.1 kcps	Log10 of Rel to EFC (Feb2021) [1, 28]: -1.252; Rel-to EFC [1]: 0.05593; n-fold to virus [1, 19]: 2.35; infectivity [1, 20]: low; Log Count Rate [4, 24]: 4.01; Log Count Rate ([4]; Fig S8 panels B, D): 4.01; Count Rate [4, 25]: 10241.1
